What was measured:
Assay in all cases: cells
[1] = tested on: EW-22; assay type: functional, cell-based, Homo sapiens; conditions: Homo sapiens, EW-22;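 further: growth inhibition of the EW-22 cell line, measured with a cell viability readout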
Description: SANGER: Inhibition of human EW-22 cell growth in a cell viability assay.

[2] = tested on: M059J; assay type: functional, cell-based, Homo sapiens; conditions: Homo sapiens, M059J;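 further: growth inhibition of M059J cells, read out with a cell viability assay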
Description: SANGER: Inhibition of human M059J cell growth in a cell viability assay.

[3] = tested on: KOSC-2; assay type: functional, cell-based, Homo sapiens; conditions: Homo sapiens, KOSC-2;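 further: growth inhibition of KOSC-2 cells, read out by a cell viability assay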
Description: SANGER: Inhibition of human KOSC-2 cell growth in a cell viability assay.

[4] = tested on: GMS-10; assay type: functional, cell-based, Homo sapiens; conditions: Homo sapiens, GMS-10;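 further: growth inhibition of GMS-10 cells, read out as cell viability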
Description: SANGER: Inhibition of human GMS-10 cell growth in a cell viability assay.

[5] = tested on: NCI-H2291; assay type: functional, cell-based, Homo sapiens; conditions: Homo sapiens, NCI-H2291
Description: SANGER: Inhibition of human NCI-H2291 cell growth in a cell viability assay.

[6] = tested on: SK-MEL3; assay type: functional, cell-based, Homo sapiens, SK-MEL-3; conditions: Homo sapiens, SK-MEL3;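 further: growth inhibition of human SK-MEL-3 cells, read out with a cell viability assay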
Description: SANGER: Inhibition of human SK-MEL-3 cell growth in a cell viability assay.

[7] = tested on: SK-MEL-28; assay type: functional, cell-based, Homo sapiens; conditions: Homo sapiens, SK-MEL-28;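 further: growth inhibition of human SK-MEL-28 cells, read out with a cell viability assay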
Description: SANGER: Inhibition of human SK-MEL-28 cell growth in a cell viability assay.

[8] = tested on: HMV-2 cell line; assay type: functional, cell-based, Homo sapiens; conditions: Homo sapiens, HMV-2;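 further: growth inhibition of HMV-II cells, read out with a cell viability assay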
Description: SANGER: Inhibition of human HMV-II cell growth in a cell viability assay.

[9] = tested on: HCC1419; assay type: functional, cell-based, Homo sapiens; conditions: Homo sapiens, HCC1419;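 further: growth inhibition of human HCC1419 cells, read out as cell viability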
Description: SANGER: Inhibition of human HCC1419 cell growth in a cell viability assay.

[10] = tested on: 769-P; assay type: functional, cell-based, Homo sapiens; conditions: Homo sapiens, 769-P
Description: SANGER: Inhibition of human 769-P cell growth in a cell viability assay.

[11] = tested on: RMG-I; assay type: functional, cell-based, Homo sapiens; conditions: Homo sapiens, RMG-I;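 further: growth inhibition of human RMG-I cells, read out with a cell viability assay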
Description: SANGER: Inhibition of human RMG-I cell growth in a cell viability assay.

[12] = tested on: CAL-85-1; assay type: functional, cell-based, Homo sapiens; conditions: Homo sapiens, CAL-85-1;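 further: growth inhibition of human CAL-85-1 cells, read out with a cell viability assay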
Description: SANGER: Inhibition of human CAL-85-1 cell growth in a cell viability assay.

[13] = tested on: MKN-7; assay type: functional, cell-based, Homo sapiens; conditions: Homo sapiens, MKN-7;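 further: growth inhibition of MKN-7 cells, read out with a cell viability assay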
Description: SANGER: Inhibition of human MKN7 cell growth in a cell viability assay.

[14] = tested on: BXPC-3; assay type: functional, cell-based, Homo sapiens; conditions: Homo sapiens, BXPC-3;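 further: growth inhibition of human BxPC-3 cells, read out by a cell viability assay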
Description: SANGER: Inhibition of human BxPC-3 cell growth in a cell viability assay.

[15] = tested on: COR-L105; assay type: functional, cell-based, Homo sapiens; conditions: Homo sapiens, COR-L105;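 further: cell growth inhibition determined with a viability assay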
Description: SANGER: Inhibition of human COR-L105 cell growth in a cell viability assay.

[16] = tested on: COLO-741; assay type: functional, cell-based, Homo sapiens; conditions: Homo sapiens, COLO-741
Description: SANGER: Inhibition of human COLO-741 cell growth in a cell viability assay.

[17] = tested on: NCI-H1573; assay type: functional, cell-based, Homo sapiens; conditions: Homo sapiens, NCI-H1573;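 further: growth inhibition of NCI-H1573 cells, read out with a cell viability assay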
Description: SANGER: Inhibition of human NCI-H1573 cell growth in a cell viability assay.

[18] = tested on: C32; assay type: functional, cell-based, Homo sapiens; conditions: Homo sapiens, C32;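 further: cell viability assay, with IC50 reflecting inhibition of C32 cell growth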
Description: SANGER: Inhibition of human C32 cell growth in a cell viability assay.

[19] = tested on: OAW-42; assay type: functional, cell-based, Homo sapiens; conditions: Homo sapiens, OAW-42;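 further: growth inhibition of OAW-42 cells, read out with a cell viability assay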
Description: SANGER: Inhibition of human OAW-42 cell growth in a cell viability assay.

[20] = tested on: NCI-H1993; assay type: functional, cell-based, Homo sapiens; conditions: Homo sapiens, NCI-H1993;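 further: growth inhibition of the cancer cell line, assessed with a cell viability assay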
Description: SANGER: Inhibition of human NCI-H1993 cell growth in a cell viability assay.

[21] = tested on: PANC-08-13; assay type: functional, cell-based, Homo sapiens; conditions: Homo sapiens, PANC-08-13;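 further: cell growth inhibition, measured with a cell viability assay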
Description: SANGER: Inhibition of human PANC-08-13 cell growth in a cell viability assay.

[22] = tested on: RERF-LC-MS; assay type: functional, cell-based, Homo sapiens; conditions: Homo sapiens, RERF-LC-MS;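 further: growth inhibition of human RERF-LC-MS cells, read out by a cell viability assay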
Description: SANGER: Inhibition of human RERF-LC-MS cell growth in a cell viability assay.

[23] = tested on: U-118-MG; assay type: functional, cell-based, Homo sapiens; conditions: Homo sapiens, U-118-MG
Description: SANGER: Inhibition of human U-118-MG cell growth in a cell viability assay.

[24] = tested on: GP5d; assay type: functional, cell-based, Homo sapiens; conditions: Homo sapiens, GP5d;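 further: growth inhibition of human GP5d cells, read out with a cell viability assay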
Description: SANGER: Inhibition of human GP5d cell growth in a cell viability assay.

[25] = tested on: HOS; assay type: functional, cell-based, Homo sapiens; conditions: Homo sapiens, HOS;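 further: growth inhibition of human HOS cells, read out with a cell viability assay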
Description: SANGER: Inhibition of human HOS cell growth in a cell viability assay.

[26] = tested on: KYSE-410; assay type: functional, cell-based, Homo sapiens; conditions: Homo sapiens, KYSE-410;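 further: growth inhibition of KYSE-410 cells, measured through a cell viability readout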
Description: SANGER: Inhibition of human KYSE-410 cell growth in a cell viability assay.

[27] = tested on: Panc1005; assay type: functional, cell-based, Homo sapiens; conditions: Homo sapiens, Panc1005;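 further: growth inhibition of human PANC-10-05 cells, measured by a cell viability assay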
Description: SANGER: Inhibition of human PANC-10-05 cell growth in a cell viability assay.

[28] = tested on: SAS; assay type: functional, cell-based, Homo sapiens; conditions: Homo sapiens, SAS;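 further: growth inhibition of SAS cells, read out with a cell viability assay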
Description: SANGER: Inhibition of human SAS cell growth in a cell viability assay.

[29] = tested on: SNU-449; assay type: functional, cell-based, Homo sapiens; conditions: Homo sapiens, SNU-449
Description: SANGER: Inhibition of human SNU-449 cell growth in a cell viability assay.

[30] = tested on: D-336MG; assay type: functional, cell-based, Homo sapiens; conditions: Homo sapiens, D-336MG
Description: SANGER: Inhibition of human D-336MG cell growth in a cell viability assay.

[31] = tested on: MDA-MB-231; assay type: functional, cell-based, Homo sapiens; conditions: Homo sapiens, MDA-MB-231
Description: SANGER: Inhibition of human MDA-MB-231 cell growth in a cell viability assay.

[32] = tested on: NCI-H1563; assay type: functional, cell-based, Homo sapiens; conditions: Homo sapiens, NCI-H1563;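 further: growth inhibition of human NCI-H1563 cells, read out with a cell viability assay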
Description: SANGER: Inhibition of human NCI-H1563 cell growth in a cell viability assay.

[33] = tested on: NCI-H1793; assay type: functional, cell-based, Homo sapiens; conditions: Homo sapiens, NCI-H1793;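 further: cell growth inhibition, read out by a cell viability assay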
Description: SANGER: Inhibition of human NCI-H1793 cell growth in a cell viability assay.

[34] = tested on: EFM-19; assay type: functional, cell-based, Homo sapiens; conditions: Homo sapiens, EFM-19;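 further: growth inhibition of human EFM-19 cells, measured in a cell viability assay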
Description: SANGER: Inhibition of human EFM-19 cell growth in a cell viability assay.

[35] = tested on: DK-MG; assay type: functional, cell-based, Homo sapiens; conditions: Homo sapiens, DK-MG;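 further: growth inhibition of DK-MG cells, read out with a cell viability assay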
Description: SANGER: Inhibition of human DK-MG cell growth in a cell viability assay.

[36] = tested on: MKN-1; assay type: functional, cell-based, Homo sapiens; conditions: Homo sapiens, MKN-1;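 further: growth inhibition of human MKN1 cells, read out by a cell viability measurement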
Description: SANGER: Inhibition of human MKN1 cell growth in a cell viability assay.

[37] = tested on: KYSE-150 cell line; assay type: functional, cell-based, Homo sapiens; conditions: Homo sapiens, KYSE-150;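 further: growth inhibition of human KYSE-150 cells, read out with a cell viability assay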
Description: SANGER: Inhibition of human KYSE-150 cell growth in a cell viability assay.

[38] = tested on: D-423MG; assay type: functional, cell-based, Homo sapiens; conditions: Homo sapiens, D-423MG
Description: SANGER: Inhibition of human D-423MG cell growth in a cell viability assay.

Measured: IC50

CCN(CC)CCCCNc1ncc2cc(-c3cc(OC)cc(OC)c3)c(NC(=O)NC(C)(C)C)nc2n1 [PD-173074]
> 2000 nM: all assays above

From ChEMBL document CHEMBL1201861, “Genomics of Drug Sensitity in Cancer screening data, Wellcome Trust Sanger Institute”
